Data: patent US10246457B2, “Indazole and azaindazole Btk inhibitors” (MERCK SHARP & DOHME CORP., priority 2015, dated 2019)

Assays:
[1] = molecular target: 100P Btk enzyme (activated full-length Btk) (Homo sapiens (Human), UniProt Q06187); assay: 100P Btk Enzyme Activity Assay (LANCE TR-FRET); format: biochemical; conditions: activated Btk (100P), 25 μM ATP, 60 minute compound and enzyme incubation; top concentration 1000 nM; read-out: Btk binding IC50 (nM) with 100 P
Protocol: Activated full-length Btk recombinant enzyme was expressed and purified in the same manner as the […] enzyme, except an auto-phosphorylation step was added to the purification scheme. […] This protein represents the activated state of the Btk enzyme. […] Btk Enzyme Activity Assay Btk enzymatic activity was determined with the LANCE (Lanthanide Chelate Excite) TR-FRET (lime-resolved fluorescence resonance energy transfer) assay. […] MW=79378 Da). […] Phosphorylation reactions were allowed to proceed for 45 minutes. […] After 60 minutes incubation with detection reagents, reaction plates were read on a PerkinElmer EnVision plate reader using standard TR-FRET protocol. Briefly, excitation of donor molecules (Eu-chelate:anti-phospho-antibody) with a laser light source at 337 nm produces energy that can be transferred to Dylight-650 acceptor molecules if this donor:acceptor pair is within close proximity. Fluorescence intensity at both 665 nm (acceptor) and 615 nm (donor) are measured and a TR-FRET ratio calculated for each well (acceptor intensity/donor intensity). […] (Log10) compound concentrations.

[2] = molecular target: 25P Btk enzyme (un-activated full-length Btk) (Homo sapiens (Human), UniProt Q06187); assay: 25P Btk Enzyme Activity Assay (LANCE TR-FRET); format: biochemical; conditions: un-activated Btk (25P), 25 μM ATP, 60 minute compound and enzyme incubation; read-out: Btk binding IC50 (nM) with 25 P
Protocol: Preparation of Un-Activated Btk Enzyme (25P Btk)
Un-activated full-length Btk recombinant protein was purified from baculovirus-transfected Sf21 cells. […] This protein represents the un-activated state of the Btk enzyme.
25P Btk Enzyme Activity Assay
Btk enzymatic activity was determined with the LANCE (Lanthanide Chelate Excite) TR-FRET (lime-resolved fluorescence resonance energy transfer) assay. […] To each well of a black non-binding surface Corning 384-well microplate (Corning Catalog #3820), 5 nL of compound (2000 fold dilution in final assay volume of 10 μL) was dispensed, followed by the addition of 7.5 μL of 1× kinase buffer (50 mM Hepes 7.5, 10 mM MgCl2, 0.01% Brij-35, 1 mM EGTA, 0.05% BSA and 1 mM DTT) containing 26.67 pg/μL (266.7 pM) of 25P Btk enzyme (recombinant protein from baculovirus-transfected Sf9 cells: full-length Btk; MW=79378 Da). Following a 60 minute compound and enzyme incubation, each reaction was initiated by the addition of 2.5 μL 1× kinase buffer containing 8 μM biotinylated “A5” peptide (Biotin-EQEDEPEGDYFEWLE-NH2), and 100 μM ATP. The final reaction in each well of 10 consists of 200 pM 25P Btk, 2 μM biotin-A5-peptide, and 25 μM ATP. Phosphorylation reactions were allowed to proceed for 120 minutes. Reactions were immediately quenched by the addition of 20 uL of 1× quench buffer (15 mM EDTA, 25 mM Hepes 7.3, and 0.1% Triton X-100) containing detection reagents (0.626 nM of LANCE-Eu-W1024-anti-phosphoTyrosine antibody, PerkinElmer and 86.8 nM of Streptavidin-conjugated Dylight 650, Dyomics/ThermoFisher Scientific). After 60 minutes incubation with detection reagents, reaction plates were read on a PerkinElmer EnVision plate reader using standard TR-FRET protocol. Briefly, excitation of donor molecules (Eu-chelate:anti-phospho-antibody) with a laser light source at 337 nm produces energy that can be transferred to Dylight-650 acceptor molecules if this donor:acceptor pair is within close proximity. Fluorescence intensity at both 665 nm (acceptor) and 615 nm (donor) are measured and a TR-FRET ratio calculated for each well (acceptor intensity/donor intensity). IC50 values were determined by 4 parameter robust fit of TR-FRET ratio values vs. (Log10) compound concentrations.

Sequence of 100P Btk enzyme (activated full-length Btk) (Q06187 whole entry): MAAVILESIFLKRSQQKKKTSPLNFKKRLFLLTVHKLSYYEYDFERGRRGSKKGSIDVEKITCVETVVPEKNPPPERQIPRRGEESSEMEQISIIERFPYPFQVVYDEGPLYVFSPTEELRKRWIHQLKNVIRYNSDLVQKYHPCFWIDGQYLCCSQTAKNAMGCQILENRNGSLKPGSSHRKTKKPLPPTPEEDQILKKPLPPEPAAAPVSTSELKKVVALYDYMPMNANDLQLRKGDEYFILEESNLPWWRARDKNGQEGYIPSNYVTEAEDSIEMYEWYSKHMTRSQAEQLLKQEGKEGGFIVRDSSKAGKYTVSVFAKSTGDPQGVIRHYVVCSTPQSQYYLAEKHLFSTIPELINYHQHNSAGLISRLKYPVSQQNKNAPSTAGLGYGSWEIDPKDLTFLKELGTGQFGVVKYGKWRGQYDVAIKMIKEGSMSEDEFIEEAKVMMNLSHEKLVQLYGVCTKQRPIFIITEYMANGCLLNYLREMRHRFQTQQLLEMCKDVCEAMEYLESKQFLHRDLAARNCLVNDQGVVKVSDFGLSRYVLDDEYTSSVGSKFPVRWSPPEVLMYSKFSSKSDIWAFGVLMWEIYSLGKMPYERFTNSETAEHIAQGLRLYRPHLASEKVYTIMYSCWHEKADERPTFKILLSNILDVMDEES
Sequence of 25P Btk enzyme (un-activated full-length Btk) (Q06187 whole entry): as above

Row | SMILES | IC50 [1] | IC50 [2]
1 | CNC(=O)c1cc(-c2cccc(-n3ncc4cc(C(C)(C)C)cc(F)c4c3=O)c2CO)cc2c(N)n[nH]c12 [Example 11, 3-amino-5-[3-(6-tert-butyl-8-fluoro-1-oxophthalazin-2(1H)-yl)-2-(hydroxymethyl)phenyl]-N-methyl-1H-indazole-7-carboxamide] | 29.3 nM | 0.16 nM
2 | Cc1nn(C)cc1-c1cc(-c2cccc(-n3ncc4cc(C(C)(C)C)cc(F)c4c3=O)c2CO)cc2c(N)n[nH]c12 [Example 27, 2-(3-(3-amino-7-(1,3-dimethyl-1H-pyrazol-4-yl)-1H-indazol-5-yl)-2-(hydroxymethyl)phenyl)-6-(tert-butyl)-8-fluorophthalazin-1(2H)-one] | 69.5 nM | 0.43 nM

The next lines start with the values.

Row | IC50 [1] | IC50 [2] | SMILES
3 | 429 nM | 0.48 nM | CC(C)(C)c1cc(F)c2c(=O)n(-c3cccc(-c4cc(-c5ccccc5)c5[nH]nc(N)c5c4)c3CO)ncc2c1 [Example 19, 2-[3-(3-amino-7-phenyl-1H-indazol-5-yl)-2-(hydroxymethyl)phenyl]-6-tert-butyl-8-fluorophthalazin-1(2H)-one]
4 | 801 nM | 9.5 nM | CC(C)(C)c1cc(F)c2c(=O)n(-c3cccc(-c4cc5c(N)n[nH]c5cn4)c3CO)ncc2c1 [Example 21, 2-[3-(3-amino-1H-pyrazolo[3,4-c]pyridin-5-yl)-2-(hydroxymethyl)phenyl]-6-tert-butyl-8-fluorophthalazin-1(2H)-one]
5 | 17.4 nM | 0.11 nM | CC(C)(C)c1cc(F)c2c(=O)n(-c3cccc(-c4cc(-c5ccccn5)c5[nH]nc(N)c5c4)c3CO)ncc2c1 [Example 22, 2-(3-(3-amino-7-(pyridin-2-yl)-1H-indazol-5-yl)-2-(hydroxymethyl)phenyl)-6-(tert-butyl)-8-fluorophthalazin-1(2H)-one]
6 | 341 nM | 10.9 nM | Cc1cc2[nH]nc(N)c2cc1-c1cccc(-n2ncc3cc(C(C)(C)C)cc(F)c3c2=O)c1CO [Example 2, 2-[3-(3-amino-6-methyl-1H-indazol-5-yl)-2-(hydroxymethyl)phenyl]-6-tert-butyl-8-fluorophthalazin-1(2H)-one]
